Measurements published in patent US20090176817A1, “Method of Treatment of Diarrhea-Predominant Irritable Bowel Syndrome in a Subject” (priority 2005, published 2009).
Marks after values point to notes of the source that are not given here.

Columns and labels:
[1] = Study S.241.1.107: pharmacokinetics in hepatic impairment, 8 mg TID; conditions: for AUC(0-τ): AUC(0-8); for AUC(0-τ) / Cmax / T½: arith. mean (%CV); for Tmax: median
Protocol: The effect of hepatic impairment on the pharmacokinetics of cilansetron was evaluated in a multiple-dose, parallel group study in 14 healthy and 14 moderately to severely hepatically impaired male and female subjects, aged 41-70 years. Impaired subjects (Child-Pugh score 7 to 11) were matched to healthy subjects by age (±2 years), sex, menstrual status, and smoking history status. All subjects received oral cilansetron 8 mg TID on Days 1 to 5, and a single dose on the morning of Day 6. […] Blood samples were also collected at predose on Day 1, and at predose, 1 hour and 1.5 hours postdose on Day 6, for measurement of cilansetron protein binding in serum.

[2] = Study S.241.1.110: pharmacokinetics in renal impairment, 2 mg TID; conditions: for AUC(0-τ) / Cmax / T½ / Tmax / Cmin: cilansetron 2 mg TID; for AUC(0-τ) / Cmax / T½ / Cmin: mean (%CV); for Tmax: median; for Cmin: Day 6 morning predose value
Protocol: The effect of renal impairment on the pharmacokinetics of cilansetron was evaluated in a study excluding subjects with end-stage renal disease, and utilizing a single-center, open-label, multiple-dose, parallel group study in 13 male and 9 female subjects, aged 33-74 years. […] Healthy subjects were matched to renally-impaired subjects with respect to age, weight, gender, and smoking status. All subjects received oral cilansetron 2 mg TID on Days 1 to 5, and a single dose on the morning of Day 6. Blood samples for measurement of plasma pharmacokinetics of cilansetron and its 4-hydroxy metabolites were collected up to 24 hours following dosing on Day 6, and log-transformed pharmacokinetic parameters for these analytes were statistically compared between study groups. Serum concentrations of unbound cilansetron and its 4-hydroxy metabolites were also measured prior to dosing and at 1 and 1.5 hours postdose on Day 6.

[3] = Study S.241.1.109: interaction with paroxetine 20 mg QD; type: in vivo, human; conditions: for AUC(0-τ) / Cmax / Tmax: steady state; for AUC(0-τ): AUC(0-8); for AUC(0-τ) / Cmax: arith. mean; for Tmax: median
Protocol: In an open-label, randomized, parallel-group study in three groups of 12 healthy, male and female subjects (aged 19 to 45 years), subjects received a 2 mg single dose of cilansetron on Day 1, 2 mg TID on Days 2-13, and a 2 mg single dose on Day 14. […] All morning doses of cilansetron and enzyme inhibitors were administered immediately after a standard breakfast. […] For each treatment group, log-transformed cilansetron AUC(0-τ) and Cmax values on Day 14 (cilansetron+enzyme inhibitor) were compared statistically versus values on Day 7 (cilansetron alone).
FIG. 50, FIG. 51, and FIG. 52 present geometric mean steady-state plasma concentration-time profiles for cilansetron and its 4-hydroxy metabolites in the absence and presence of concomitant paroxetine. […] These increases in exposure are not clinically significant.

[4] = Study S241.1.111: relative bioavailability and food effect, 2 mg tablet vs oral solution; type: in vivo, human; conditions: for Tmax: median
Protocol: Subjects were randomized to receive a cilansetron 2 mg tablet after an overnight fast, a cilansetron 2 mg tablet after a high-fat breakfast, and a cilansetron 2 mg oral solution after an overnight fast during the three treatment periods, with a 7-day washout between periods. Serial blood sampling was performed up to 24 hours following each treatment, and plasma pharmacokinetics parameters for cilansetron and its metabolites, (4R)-hydroxy cilansetron and (4S)-hydroxy cilansetron, were estimated. FIG. 4, FIG. 5, and FIG. 6 present mean plasma concentration-time profiles for cilansetron and its metabolites following treatment with the cilansetron tablet and oral solution. Table 2.7.1.2.2 presents descriptive statistics for the pharmacokinetic parameters of cilansetron and its metabolites for the tablet and oral solution, and the results of statistical comparisons between treatments (tablet versus solution).
Subjects were randomized to receive a cilansetron 2 mg tablet after an overnight fast, a cilansetron 2 mg tablet after a high-fat breakfast, and a cilansetron 2 mg oral solution after an overnight fast during the three treatment periods, with a 7-day washout between periods. Serial blood sampling was performed up to 24 hours following each treatment and plasma pharmacokinetics parameters for cilansetron and its metabolites, (4R)-hydroxy cilansetron and (4S)-hydroxy cilansetron, were estimated. FIG. 7, FIG. 8, and FIG. 9 present mean plasma concentration-time profiles for cilansetron and its metabolites following treatment with the cilansetron tablet under fasted conditions and following a high-fat meal. Table 2.7.1.2.4 presents descriptive statistics for the pharmacokinetic parameters of cilansetron and its metabolites for the tablet under fed and fasted conditions, and the results of statistical comparisons between treatments (fed versus fasted).

[5] = Study S.241.1.110: ex vivo protein binding in serum, healthy and renally impaired; conditions: for Fraction unbound ratio All Renal Groups Combined:Healthy / Fraction unbound ratio Mild:Healthy / Fraction unbound ratio Moderate:Healthy / Fraction unbound ratio Severe:Healthy: ratio (90% CI)
Protocol: The ex vivo protein binding of cilansetron and its 4-hydroxy metabolites has been measured in serum samples collected in a multiple-dose study in healthy and renally impaired male and female subjects, aged 33-74 years. […] Healthy subjects were matched to renally-impaired subjects with respect to age, weight, gender, and smoking status. All subjects received oral cilansetron 2 mg TID on Days 1 to 5, and a single dose on the morning of Day 6.

[6] = geometric LS mean ratio impaired/healthy, cilansetron 8 mg TID oral
[7] = healthy, cilansetron 8 mg TID oral
[8] = hepatically impaired, cilansetron 8 mg TID oral
[9] = moderate renal impairment, Day 6
[10] = Cilansetron 2 mg TID + Paroxetine 20 mg QD
[11] = Cilansetron 2 mg TID alone (paroxetine group)
[12] = cilansetron + paroxetine / cilansetron alone, ANOVA of log-transformed data
[13] = 2 mg tablet, fasted, single dose

## Cc1nccn1CC1CCc2c(c3cccc4c3n2CC[C@@H]4O)C1=O (stereo partly drawn) [(4S)-hydroxy cilansetron]
[1]; [6]
  AUC(0-τ) Ratio: 0.68
  Cmax Ratio: 0.64
[1]; [7]
  AUC(0-τ), Geom. LS Mean: 42.5 ng·h/mL
  Cmax, Geom. LS Mean: 6.89 ng/mL
  AUC(0-τ): 47.9 (36) ng · h/mL
  Cmax: 7.57 (33) ng/mL
  T½: 7.65 (17) h
  Tmax: 3.00 h
[1]; [8]
  AUC(0-τ), Geom. LS Mean: 29.1 ng·h/mL
  Cmax, Geom. LS Mean: 4.39 ng/mL
  AUC(0-τ): 33.8 (57) ng · h/mL
  Cmax: 5.17 (59) ng/mL
  T½: 9.41 (30) h
  Tmax: 3.00 h
[1]; in vivo
  AUC(0-τ) decrease with hepatic impairment: 32%
  Cmax decrease with hepatic impairment: 36%
[2]; Day 6 1 h, Healthy
  Plasma Conc.: 1.60 (26) ng/mL
[2]; Day 6 1 h, Mild
  Plasma Conc.: 2.26 (43) ng/mL
[2]; Day 6 1 h, Moderate
  Plasma Conc.: 2.74 (58) ng/mL
[2]; Day 6 1 h, Severe
  Plasma Conc.: 8.32 (40) ng/mL
[2]; Day 6, geometric LS mean ratio (90% CI)
  AUC(0-τ) ratio Mild/Healthy: 119 (85, 168) %
[2]; Day 6, ratio (90% CI)
  AUC(0-τ) ratio Moderate/Healthy: 174 (120, 251)* %
  AUC(0-τ) ratio Renal Combined/Healthy: 219 (168, 286)* %
  AUC(0-τ) ratio Severe/Healthy: 507 (351, 733)* %
  Cmax ratio Mild/Healthy: 129 (91, 181) %
  Cmax ratio Moderate/Healthy: 171 (118, 248)* %
  Cmax ratio Renal Combined/Healthy: 220 (168, 288)* %
  Cmax ratio Severe/Healthy: 485 (335, 702)* %
  T½ ratio Mild/Healthy: 108 (81, 144) %
  T½ ratio Moderate/Healthy: 142 (104, 193) %
  T½ ratio Renal Combined/Healthy: 142 (113, 177)* %
  T½ ratio Severe/Healthy: 186 (136, 254)* %
[2]; Day 6 […], Healthy
  Plasma Conc.: 1.68 (25) ng/mL
[2]; Day 6 […], Mild
  Plasma Conc.: 1.91 (35) ng/mL
[2]; Day 6 […], Moderate
  Plasma Conc.: 2.98 (56) ng/mL
[2]; Day 6 […], Severe
  Plasma Conc.: 8.57 (32) ng/mL
[2]; healthy subjects, Day 6
  AUC(0-τ): 12.9 (25) ng · h/mL
  Cmax: 2.15 (21) ng/mL
  T½: 8.68 (29) h
  Tmax: 2.00 h
[2]; healthy subjects
  Cmin: 1.24 (31) ng/mL
[2]; mild impairment
  Mean AUC(0-τ) increase vs healthy: 19%
  Mean Cmax increase vs healthy: 29%
[2]; mild renal impairment, Day 6
  AUC(0-τ): 15.3 (25) ng · h/mL
  Cmax: 2.77 (22) ng/mL
  T½: 9.31 (24) h
  Tmax: 2.00 h
[2]; mild renal impairment
  Cmin: 1.76 (38) ng/mL
[2]; moderate impairment
  Mean AUC(0-τ) increase vs healthy: 74%
  Mean Cmax increase vs healthy: 71%
[2]; [9]
  AUC(0-τ): 25.3 (64) ng · h/mL
  Cmax: 4.10 (60) ng/mL
  T½: 12.4 (28) h
  Tmax: 1.75 h
[2]; moderate renal impairment
  Cmin: 2.71 (72) ng/mL
[2]; severe impairment
  Mean AUC(0-τ) increase vs healthy: 407%
  Mean Cmax increase vs healthy: 385%
[2]; severe renal impairment, Day 6
  AUC(0-τ): 67.0 (35) ng · h/mL
  Cmax: 11.2 (46) ng/mL
  T½: 16.7 (45) h
  Tmax: 1.40 h
[2]; severe renal impairment
  Cmin: 7.00 (35) ng/mL
[3]; [10]
  AUC(0-τ): 7.62 ng·h/mL
  Cmax: 1.23 ng/mL
  Tmax: 3.00 h
[3]; [11]
  AUC(0-τ): 7.97 ng·h/mL
  Cmax: 1.22 ng/mL
  Tmax: 3.00 h
[3]; [12]
  AUC(0-τ) Ratio (Treatment B/A): 99%
  Cmax Ratio (Treatment B/A): 105%
[4]; 2 mg oral solution, fasted
  AUC(0-inf): 7.20 (23) ng · h/mL
  AUC(0-last): 5.82 (24) ng · h/mL
  Cmax: 0.607 (19) ng/mL
  T½: 7.13 (25) h
  Tmax: 3.00 h
[4]; [13]
  AUC(0-inf): 7.31 (22) ng · h/mL
  AUC(0-last): 5.98 (22) ng · h/mL
  Cmax: 0.637 (17) ng/mL
  T½: 7.26 (32) h
[4]; 2 mg tablet, fasted
  Tmax: 3.00 h
[4]; 2 mg tablet, fed
  AUC(0-inf): 7.54 (19) ng · h/mL
  Cmax: 0.602 (17) ng/mL
  T½: 7.94 (34) h
  Tmax: 4.00 h
[4]; 2 mg tablet, fed (high-fat breakfast)
  AUC(0-last): 6.10 (19) ng · h/mL
[5]; 1 h
  Fraction unbound ratio All Renal Groups Combined:Healthy: 102 (86, 121) %
  Fraction unbound ratio Mild:Healthy: 81 (65, 101) %
  Fraction unbound ratio Moderate:Healthy: 124 (98, 156) %
  Fraction unbound ratio Severe:Healthy: 106 (84, 133) %
[5]; Day 6 1 h, Healthy
  Fraction Unbound in Serum: 53.6 (20) %
[5]; Day 6 1 h, Mild
  Fraction Unbound in Serum: 42.8 (7) %
[5]; Day 6 1 h, Moderate
  Fraction Unbound in Serum: 69.3 (45) %
[5]; Day 6 1 h, Severe
  Fraction Unbound in Serum: 56.1 (15) %
[5]; Day 6 […], Healthy
  Fraction Unbound in Serum: 58.0 (21) %
[5]; Day 6 […], Mild
  Fraction Unbound in Serum: 46.3 (11) %
[5]; Day 6 […], Moderate
  Fraction Unbound in Serum: 57.4 (28) %
[5]; Day 6 […], Severe
  Fraction Unbound in Serum: 42.4 (9) %
[5]; Day 6 predose, Healthy
  Fraction Unbound in Serum: 51.9 (24) %
[5]; Day 6 predose, Mild
  Fraction Unbound in Serum: 48.9 (40) %
[5]; Day 6 predose, Moderate
  Fraction Unbound in Serum: 54.0 (26) %
[5]; Day 6 predose, Severe
  Fraction Unbound in Serum: 51.4 (30) %
[5]; […]
  Fraction unbound ratio All Renal Groups Combined:Healthy: 84 (72, 99) %
  Fraction unbound ratio Mild:Healthy: 81 (67, 99) %
  Fraction unbound ratio Moderate:Healthy: 99 (80, 123) %
  Fraction unbound ratio Severe:Healthy: 75 (60, 93)^b %
[5]; healthy subjects
  Protein bound on average: 42.0-48.1%
[5]; predose
  Fraction unbound ratio All Renal Groups Combined:Healthy: 98 (79, 121) %
  Fraction unbound ratio Mild:Healthy: 91 (69, 121) %
  Fraction unbound ratio Moderate:Healthy: 104 (77, 140) %
  Fraction unbound ratio Severe:Healthy: 98 (73, 133) %
[5]; therapeutic concentration range
  Plasma protein bound: 42-48%
